Experiments:
TLR7 = target: T1, TLR7 (Homo sapiens, UniProt Q9NYK1); experiment: HEK/293 TLR7 Cell Assay; format: cell-based; conditions: TLR7/NFKb HEK cells, R848 agonist 10 uM final concentration, Steady-Glo readout; read-out: TLR7 potency
T1 construct: expressed in transfected cells; host or cells: HEK/293 cells carrying TLR7 and an NF-kB luciferase reporter
T1 sequence (Q9NYK1 27-1049): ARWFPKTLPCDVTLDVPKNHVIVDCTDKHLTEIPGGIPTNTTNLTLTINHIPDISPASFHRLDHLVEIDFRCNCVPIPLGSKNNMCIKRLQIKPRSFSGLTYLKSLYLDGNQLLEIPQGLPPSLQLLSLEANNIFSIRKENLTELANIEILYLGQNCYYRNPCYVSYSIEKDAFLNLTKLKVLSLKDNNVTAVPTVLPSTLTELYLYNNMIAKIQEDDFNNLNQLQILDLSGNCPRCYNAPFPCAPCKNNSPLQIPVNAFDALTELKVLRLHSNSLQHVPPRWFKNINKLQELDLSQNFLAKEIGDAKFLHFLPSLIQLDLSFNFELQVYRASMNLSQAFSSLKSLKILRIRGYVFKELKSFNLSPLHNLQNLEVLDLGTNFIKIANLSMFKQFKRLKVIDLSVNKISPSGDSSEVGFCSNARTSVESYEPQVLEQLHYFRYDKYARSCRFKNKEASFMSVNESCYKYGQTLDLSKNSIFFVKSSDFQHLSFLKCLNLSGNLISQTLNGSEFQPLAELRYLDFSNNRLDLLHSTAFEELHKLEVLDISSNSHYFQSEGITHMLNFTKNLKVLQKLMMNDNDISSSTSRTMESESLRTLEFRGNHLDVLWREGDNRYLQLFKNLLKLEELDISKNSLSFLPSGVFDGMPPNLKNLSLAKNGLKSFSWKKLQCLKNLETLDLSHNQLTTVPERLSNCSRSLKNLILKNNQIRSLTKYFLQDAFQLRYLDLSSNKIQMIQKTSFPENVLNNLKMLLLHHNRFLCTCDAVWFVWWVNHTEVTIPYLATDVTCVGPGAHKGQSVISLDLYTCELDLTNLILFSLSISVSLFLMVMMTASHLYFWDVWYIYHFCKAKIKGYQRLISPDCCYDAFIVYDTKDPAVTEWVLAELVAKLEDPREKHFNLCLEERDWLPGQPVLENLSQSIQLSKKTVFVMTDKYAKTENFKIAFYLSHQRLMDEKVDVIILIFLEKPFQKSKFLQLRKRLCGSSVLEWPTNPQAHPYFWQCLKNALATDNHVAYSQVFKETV
Procedure, shortened: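 Compounds added to HEK cells expressing TLR7 with an NFκB reporter 30 min ahead of 10 uM R848 challenge; luciferase signal (Steady-Glo) measured after 5 h, cells having been seeded 24 h earlier at 5000 per well.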

TLR8 = target: T2, TLR8 (Homo sapiens, UniProt Q9NR97); experiment: HEK/293 TLR8 Cell Assay; format: cell-based; conditions: HEK cells, R848 agonist 30 uM final concentration, Steady-Glo readout; read-out: TLR8 potency
T2 construct: expressed in transfected cells; host or cells: HEK/293 reporter cells (NF-kB luciferase)
T2 sequence (Q9NR97 27-1041): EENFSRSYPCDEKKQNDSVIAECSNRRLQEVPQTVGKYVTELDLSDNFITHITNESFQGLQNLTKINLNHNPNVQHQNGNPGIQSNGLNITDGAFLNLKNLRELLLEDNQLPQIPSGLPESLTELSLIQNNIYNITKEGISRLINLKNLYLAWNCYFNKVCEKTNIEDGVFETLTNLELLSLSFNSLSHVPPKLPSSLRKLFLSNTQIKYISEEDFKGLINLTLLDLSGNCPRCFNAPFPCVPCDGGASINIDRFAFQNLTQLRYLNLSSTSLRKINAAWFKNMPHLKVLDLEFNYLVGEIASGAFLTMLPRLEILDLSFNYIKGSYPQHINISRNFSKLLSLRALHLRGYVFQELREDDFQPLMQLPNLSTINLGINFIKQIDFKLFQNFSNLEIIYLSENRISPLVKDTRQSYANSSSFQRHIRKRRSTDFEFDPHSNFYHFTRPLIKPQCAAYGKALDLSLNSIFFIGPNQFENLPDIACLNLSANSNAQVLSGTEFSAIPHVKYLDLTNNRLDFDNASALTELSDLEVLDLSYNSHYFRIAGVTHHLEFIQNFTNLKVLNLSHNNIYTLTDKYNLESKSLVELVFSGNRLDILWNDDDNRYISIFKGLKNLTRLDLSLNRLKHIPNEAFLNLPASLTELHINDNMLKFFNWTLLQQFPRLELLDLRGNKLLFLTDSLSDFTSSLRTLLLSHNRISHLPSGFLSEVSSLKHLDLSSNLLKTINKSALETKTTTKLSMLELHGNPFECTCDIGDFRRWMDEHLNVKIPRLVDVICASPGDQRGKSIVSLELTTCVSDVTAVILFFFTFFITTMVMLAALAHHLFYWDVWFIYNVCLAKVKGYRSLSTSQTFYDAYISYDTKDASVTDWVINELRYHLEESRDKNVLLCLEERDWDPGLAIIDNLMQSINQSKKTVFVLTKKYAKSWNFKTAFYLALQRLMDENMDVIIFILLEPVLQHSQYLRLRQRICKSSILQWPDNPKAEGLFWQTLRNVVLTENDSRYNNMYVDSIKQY

Row | Compound | IC50 (TLR7) [µM] | IC50 (TLR8) [µM]
1 | C[C@@H]1CN(c2cnc(C#N)c3ncccc23)C[C@H](CNCC(O)CF)O1 (stereo partly drawn) [Example 373, 5-{(2S,6R)-2-[(3-Fluoro-2-hydroxy-propylamino)-methyl]-6-methyl-morpholin-4-yl}-[1,7]naphthyridine-8-carbonitrile] | > 0.15 | > 0.15
2 | CC(=O)NCCSC[C@H]1CN(c2cnc(C#N)c3ncccc23)C[C@@H](C)O1 [Example 374, N-{2-[(2R,6R)-4-(8-Cyano-[1,7]naphthyridin-5-yl)-6-methyl-morpholin-2-ylmethylsulfanyl]-ethyl}-acetamide] | > 0.15 | 0.075 to 0.15
3 | C[C@@H]1CN(c2cnc(C#N)c3ncccc23)C[C@H](CN2CCS(=O)(=O)CC2)O1 [Example 376, 5-[(2S,6R)-2-(1,1-Dioxo-1lambda6-thiomorpholin-4-ylmethyl)-6-methyl-morpholin-4-yl]-[1,7]naphthyridine-8-carbonitrile] | > 0.15 | > 0.15
4 | C[C@@H]1CN(c2cnc(C#N)c3ncccc23)C[C@H](CNCC2(F)CCOCC2)O1 [Example 377, 5-((2S,6R)-2-{[(4-Fluoro-tetrahydro-pyran-4-ylmethyl)-amino]-methyl}-6-methyl-morpholin-4-yl)-[1,7]naphthyridine-8-carbonitrile] | > 0.15 | > 0.15
5 | C[C@@H]1CN(c2cnc(C#N)c3ncccc23)C[C@H](CNCC2(O)COC2)O1 [Example 378, 5-((2S,6R)-2-{[(3-Hydroxy-oxetan-3-ylmethyl)-amino]-methyl}-6-methyl-morpholin-4-yl)-[1,7]naphthyridine-8-carbonitrile] | > 0.15 | > 0.15
6 | C[C@@H]1CN(c2cnc(C#N)c3ncccc23)C[C@H](CN2CCNC(=O)C2)O1 [Example 379, 5-[(2R,6S)-2-Methyl-6-(3-oxo-piperazin-1-ylmethyl)-morpholin-4-yl]-naphthyridine-8-carbonitrile] | > 0.15 | > 0.15
7 | CC(=O)NCCNC[C@H]1CN(c2cnc(C#N)c3ncccc23)C[C@@H](C)O1 [Example 380, N-(2-{[(2S,6R)-4-(8-Cyano-[1,7]naphthyridin-5-yl)-6-methyl-morpholin-2-ylmethyl]-amino}-ethyl)-acetamide] | > 0.15 | > 0.15
8 | CC(=O)N1CCC(NC[C@H]2CN(c3cnc(C#N)c4ncccc34)C[C@@H](C)O2)CC1 [Example 381, 5-{(2S,6R)-2-[(1-Acetyl-piperidin-4-ylamino)-methyl]-6-methyl-morpholin-4-yl}-[1,7]naphthyridine-8-carbonitrile] | > 0.15 | > 0.15
9 | C[C@@H]1CN(c2cnc(C#N)c3ncccc23)C[C@H](CN2CCN(S(N)(=O)=O)CC2)O1 [Example 382, 4-{[(2S,6R)-4-(8-cyano-1,7-naphthyridin-5-yl)-6-methylmorpholin-2-yl]methyl}piperazine-1-sulfonamide] | > 0.15 | > 0.15
10 | C[C@@H]1CN(c2cnc(C(F)(F)F)c3ncccc23)C[C@H](CO)O1 [Example 383, [(2R,6R)-6-Methyl-4-(8-trifluoromethyl-[1,7]naphthyridin-5-yl)-morpholin-2-yl]-methanol] | > 0.15 | > 0.15
11 | C[C@@H]1CN(c2cnc(C(F)(F)F)c3ncccc23)C[C@H](CNC2CCS(=O)(=O)CC2)O1 [Example 384, (1,1-Dioxo-hexahydro-1lambda6-thiopyran-4-yl)-[(2S,6R)-6-methyl-4-(8-trifluoromethyl-[1,7]naphthyridin-5-yl)-morpholin-2-ylmethyl]-amine] | < 0.075 | > 0.15
12 | C[C@@H]1CN(c2cnc(C(F)(F)F)c3ncccc23)C[C@H](CN2CCN(C)CC2)O1 [Example 387, 5-[(2R,6S)-2-Methyl-6-(4-methyl-piperazin-1-ylmethyl)-morpholin-4-yl]-8-trifluoromethyl-[1,7]naphthyridine] | 0.075 to 0.15 | 0.075 to 0.15
13 | N#Cc1ccc(N2C[C@H](N)C[C@H](C(F)(F)F)C2)c2ccc(=O)[nH]c12 [Example 388, 5-((3R,5S)-3-Amino-5-trifluoromethyl-piperidin-1-yl)-2-oxo-1,2-dihydro-quinoline-8-carbonitrile] | > 0.15 | > 0.15
14 | (2S)—N-[(3R,5S)-5-amino-1-(8-cyanoquinazolin-5-yl)piperidin-3-yl]-2-(4-methylpiperazin-1-yl)propanamide [Example 97] | < 0.075 | > 0.15
15 | (2S,6S)-4-(8-cyanoquinolin-5-yl)-N-[(4-fluoro-1-methylpiperidin-4-yl)methyl]-6-(trifluoromethyl)morpholine-2-carboxamide [Example 316] | 0.075 to 0.15 | > 0.15
